Patent publication US11331327B2, “Antibacterial use of halogenated salicylanilides” (UNION therapeutics A/S, priority 2014, dated 2022)
Read-outs that look alike come from different tables or passages of the source.

Test system: S. aureus clinical isolates and S. aureus ATCC 29213
Assay: MIC assay according to CLSI criteria, Example 2, S. aureus strains
Type: cell-based, Staphylococcus aureus
Details: for MIC: Staphylococcus aureus, read-out: MIC
Protocol: Strains were conserved in Luria Bertani (LB) Broth (S. aureus) or Brain Heart Infusion (BHI) (S. pyogenes) supplemented with glycerol 15% (v/v) at −80° C., and reactivated by isolation on LB (S. aureus) or BHI (S. pyogenes) agar plates. Strains were cultivated in Mueller Hinton (MH) Broth-cation adjusted (S. aureus) or BHI (S. pyogenes). All strains were cultivated aerobically (microaerobically for S. pyogenes strains) at 37° C.
Bacterial cultures were stopped in their exponential growth phase and plates were inoculated with the approximate concentration of 5×10^5 cells per well. Plates were incubated at 37° C. for 18 hours (S. aureus) or 24 hours (S. pyogenes).

[1] = ATCC29213, Staphylococcus aureus strains
[2] = S. aureus strains with MIC 0.5 μg/ml

O=C(Nc1ccc([N+](=O)[O-])cc1Cl)c1cc(Cl)ccc1O [Niclosamide, 5-chloro-N-(2-chloro-4-nitrophenyl)-2-hydroxybenz-amide]
0.125 to 0.5 µg/mL: MIC Range values (Staphylococcus aureus strains)
(55/205): MIC distribution (ratio of strains) [2]
0.5 µg/mL: MIC90 [1] | MIC (ATCC29213, strain 9-1862936) | MIC (ATCC29213, strain 9-2625962) | MIC (ATCC29213, strain 9-26422166) | MIC (ATCC29213, strain 000040C) | MIC (ATCC29213, strain 115015T) | MIC (ATCC29213, strain 115242C) | MIC (ATCC29213, strain 115268C) | MIC (ATCC29213, strain 115273C) | MIC (ATCC29213, strain 115303C) | MIC (ATCC29213, strain 115445C) | MIC (ATCC29213, strain 115691T) | MIC (ATCC29213, strain 115740E) | MIC (ATCC29213, strain 115903T) | MIC (ATCC29213, strain ATCC 29213) | MIC (ATCC29213, strain E5-1030472) | MIC (ATCC29213, strain E5-1033076 (first line, r202)) | MIC (ATCC29213, strain E5-1033076 (second line, r203)) | MIC (ATCC29213, strain E5-1033091) | MIC (ATCC29213, strain E5-1035277) | MIC (ATCC29213, strain E5-1035775) | MIC (ATCC29213, strain E5-1035779) | MIC (ATCC29213, strain E5-1037958) | MIC (ATCC29213, strain E5-1038279) | MIC (ATCC29213, strain E5-1038294) | MIC (ATCC29213, strain E5-1039684) | MIC (ATCC29213, strain E5-1041977) | MIC (ATCC29213, strain E5-1041979) | MIC (ATCC29213, strain E5-1041987) | MIC (ATCC29213, strain E5-1043184) | MIC (ATCC29213, strain E5-1046020) | MIC (ATCC29213, strain E5-1046085) | MIC (ATCC29213, strain E5-1046096) | MIC (ATCC29213, strain E5-1046296) | MIC (ATCC29213, strain E5-1046297) | MIC (ATCC29213, strain E5-1047606) | MIC (ATCC29213, strain E5-1047924) | MIC (ATCC29213, strain R000019) | MIC (ATCC29213, strain R000020)
27%: MIC distribution (percentage of strains) [2]
0.25 µg/mL: MIC50 [1] | MIC (ATCC29213, strain 9-2642158) | MIC (ATCC29213, strain 9-2955245) | MIC (ATCC29213, strain 000041C) | MIC (ATCC29213, strain 000274T) | MIC (ATCC29213, strain 114660U) | MIC (ATCC29213, strain 115263C) | MIC (ATCC29213, strain 115295C) | MIC (ATCC29213, strain 115370U) | MIC (ATCC29213, strain 115427C) | MIC (ATCC29213, strain 115561C) | MIC (ATCC29213, strain 115584D) | MIC (ATCC29213, strain 115628T) | MIC (ATCC29213, strain 115690C) | MIC (ATCC29213, strain 115810E) | MIC (ATCC29213, strain 116122T) | MIC (ATCC29213, strain E5-1029252) | MIC (ATCC29213, strain E5-1029558) | MIC (ATCC29213, strain E5-1030440) | MIC (ATCC29213, strain E5-1030469) | MIC (ATCC29213, strain E5-1033088) | MIC (ATCC29213, strain E5-1035284) | MIC (ATCC29213, strain E5-1037971) | MIC (ATCC29213, strain E5-1038286) | MIC (ATCC29213, strain E5-1039697) | MIC (ATCC29213, strain E5-1041980) | MIC (ATCC29213, strain E5-1043668) | MIC (ATCC29213, strain E5-1045179) | MIC (ATCC29213, strain E5-1046019) | MIC (ATCC29213, strain E5-1046039) | MIC (ATCC29213, strain E5-1046070) | MIC (ATCC29213, strain E5-1046074) | MIC (ATCC29213, strain E5-1046298) | MIC (ATCC29213, strain E5-1046723) | MIC (ATCC29213, strain E5-1047585) | MIC (ATCC29213, strain E5-1048204) | MIC (ATCC29213, strain E5-1048428) | MIC (ATCC29213, strain E5-1048654) | MIC (ATCC29213, strain EEFIC 01) | MIC (ATCC29213, strain EEFIC 02) | MIC (ATCC29213, strain K000772) | MIC (ATCC29213, strain K000796) | MIC (ATCC29213, strain K000863) | MIC (ATCC29213, strain K000864) | MIC (ATCC29213, strain K000866) | MIC (ATCC29213, strain K115498) | MIC (ATCC29213, strain K115688) | MIC (ATCC29213, strain K115689) | MIC (ATCC29213, strain R000024) | MIC (ATCC29213, strain U115579) | MIC (ATCC 29213 / MRSA, strain MRSA 01) | MIC (ATCC 29213 / MRSA, strain MRSA 02) | MIC (ATCC 29213 / MRSA, strain MRSA 03) | MIC (ATCC 29213 / MRSA, strain MRSA 04) | MIC (ATCC 29213 / MRSA, strain MRSA 05) | MIC (ATCC 29213 / MRSA, strain MRSA 06) | MIC (ATCC 29213 / MRSA, strain MRSA 08) | MIC (ATCC 29213 / MRSA, strain MRSA 10) | MIC (ATCC 29213 / MRSA, strain MRSA 11)
0.125 µg/mL: MIC (ATCC29213, strain E5-1030482) | MIC (ATCC29213, strain E5-1048670) | MIC (ATCC 29213 / MRSA, strain MRSA 07) | MIC (ATCC 29213 / MRSA, strain MRSA 09)
≤ 0.5 µg/mL: MIC (ATCC29213, all targeted S. aureus strains, including resistant strains)
